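The compound was tested at five concentrations on cells cultured in 96-well plates, with a 48-hour exposure period. At the GI50, growth is halved.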 Activity calls are given as the source filed them. Cut-off read from the data, not from the text of the source: active = GI50 up to about 1.1 µM and inactive = higher. A value given as a limit tells only on which side of the number the result lay.

Among the test systems are OVCAR-8; KM12; DU-145; OVCAR-5; Hs-578T; HL-60; SN12C; SNB-19; SK-MEL-2; NCI-H460; SK-OV-3; A498; SF-268; MOLT-4; K562; HOP-92; SR; OVCAR-3; MDA-MB-231.
Common to all, as to assay: inhibition of tumour cell growth, NCI panel, 48 h

Take `CN1CCN(CCCN2c3ccccc3Sc3ccc(C(F)(F)F)cc32)CC1`: the GI50 was 13.1 µM (inactive) in the experiment on OVCAR-8; 2.94 µM (inactive) in the experiment on KM12; 10.5 µM (inactive) with DU-145; 11.2 µM (inactive) with OVCAR-5; 3.4 µM (inactive) in the experiment with Hs-578T; 4.58 µM (inactive) in the experiment on HL-60. Further, the GI50 in the experiment on SN12C is 7.57 µM (inactive); in the experiment with SNB-19 it was 11.4 µM (inactive); with SK-MEL-2 it was 4.18 µM (inactive); in the experiment on NCI-H460, 2.24 µM (inactive); in the experiment on SK-OV-3, 13.5 µM (inactive); in the experiment on A498 it was 12.6 µM (inactive). The GI50 with SF-268 was 7.78 µM (inactive); with MOLT-4, 2.92 µM (inactive).
For the compound `CO/N=C(\C(=O)O/C(=N/C1CCCCC1)NC1CCCCC1)c1csc(NC(c2ccccc2)(c2ccccc2)c2ccccc2)n1`, the GI50 in the experiment with OVCAR-8, in the experiment on KM12, in the experiment on K562, in the experiment with DU-145, in the experiment with OVCAR-5 and in the experiment on Hs-578T was > 10 µM (inactive) in each case. In addition, the GI50 with HOP-92, in the experiment with SR, with HL-60, in the experiment with SN12C, in the experiment on SNB-19 and in the experiment on OVCAR-3 was > 10 µM (inactive) throughout. Also, the GI50 in the experiment on SK-MEL-2, in the experiment on NCI-H460, with SK-OV-3, with A498, with SF-268 and with MOLT-4 was > 10 µM (inactive) in each case.
For the compound `COc1ccccc1/N=N/C(=N/NC(=O)c1ccc(C)cc1)c1ccc(N(CCC#N)CCC#N)cc1OC`, the GI50 was 32.5 µM (inactive) in the experiment with OVCAR-8; 26.8 µM (inactive) with KM12; 31.3 µM (inactive) with K562; 40.8 µM (inactive) in the experiment on DU-145; 24.9 µM (inactive) in the experiment on MDA-MB-231; > 100 µM (inactive) in the experiment on OVCAR-5. For the same compound, the GI50 is 56.4 µM (inactive) with Hs-578T; 27.4 µM (inactive) with HOP-92; 10.8 µM (inactive) in the experiment with HL-60; 28.3 µM (inactive) in the experiment on SN12C; 30.8 µM (inactive) in the experiment on SNB-19; 29 µM (inactive) in the experiment with OVCAR-3. In addition, the GI50 was 19.8 µM (inactive) with SK-MEL-2; 29.5 µM (inactive) with NCI-H460; 37.1 µM (inactive) in the experiment with SK-OV-3; 22.2 µM (inactive) with A498; 30.5 µM (inactive) in the experiment with SF-268; 19.1 µM (inactive) in the experiment with MOLT-4.
Take `C=CCCCCCCCCCOC1C=CC(O)C(CO)O1` (stereo unspecified): the GI50 with OVCAR-8 is 17.5 µM (inactive); in the experiment with KM12 it was 27.2 µM (inactive); with K562, 20.6 µM (inactive); with DU-145, 95.3 µM (inactive); in the experiment with MDA-MB-231, 75.5 µM (inactive); in the experiment on OVCAR-5 it was 68.4 µM (inactive). Also, the GI50 in the experiment with Hs-578T is 46 µM (inactive); in the experiment with HOP-92 it was 33.5 µM (inactive); in the experiment on HL-60 it was 21.9 µM (inactive); with SN12C it was 49.5 µM (inactive); in the experiment on SNB-19 it was 54.8 µM (inactive); with OVCAR-3, 38 µM (inactive). Further, the GI50 was 35.7 µM (inactive) with SK-MEL-2; 25.2 µM (inactive) with NCI-H460; 83.6 µM (inactive) with SK-OV-3; 99.5 µM (inactive) with A498; 54.8 µM (inactive) in the experiment on SF-268; 25.5 µM (inactive) in the experiment on MOLT-4.
Take `CC(=O)O[C@H]1[C@@H](N2CCN(C)CC2)C[C@H]2[C@@H]3CC=C4C[C@@H](N5CCCC5)CC[C@]4(C)[C@H]3CC[C@@]21C`: the GI50 with OVCAR-8 was 85.1 µM (inactive); in the experiment on KM12 it was 22.4 µM (inactive); in the experiment on K562, 11.2 µM (inactive); in the experiment with MDA-MB-231, 63 µM (inactive); with OVCAR-5, 34.5 µM (inactive); in the experiment on Hs-578T, > 100 µM (inactive). Besides, the GI50 was > 100 µM (inactive) in the experiment on HOP-92; < 0.01 µM (active) with SR; 11.2 µM (inactive) with HL-60; > 100 µM (inactive) in the experiment with SN12C; > 100 µM (inactive) in the experiment with SNB-19; 88.7 µM (inactive) with OVCAR-3. Moreover, the GI50 with SK-MEL-2 is > 100 µM (inactive); in the experiment on NCI-H460, 60.5 µM (inactive); with SK-OV-3 it was > 100 µM (inactive); with A498, > 100 µM (inactive); in the experiment on SF-268, 47.6 µM (inactive); in the experiment on MOLT-4 it was 15.6 µM (inactive).
`COC1=CC(=O)c2c(O)ccc(O)c2C1=O`: the GI50 in the experiment with OVCAR-8 is 21.4 µM (inactive); with KM12, 6.93 µM (inactive); in the experiment with K562, 6.68 µM (inactive); with DU-145 it was 1.78 µM (inactive); in the experiment with MDA-MB-231 it was 3.12 µM (inactive); with OVCAR-5, 18.4 µM (inactive). Also, the GI50 was 6.4 µM (inactive) with Hs-578T; 18.6 µM (inactive) in the experiment on HOP-92; 3.77 µM (inactive) with HL-60; 2.65 µM (inactive) in the experiment with SN12C; 4.75 µM (inactive) with SNB-19; 2.18 µM (inactive) in the experiment on OVCAR-3. In addition, the GI50 was 5.04 µM (inactive) with NCI-H460; 18.6 µM (inactive) with SK-OV-3; 17.8 µM (inactive) in the experiment on A498; 7.26 µM (inactive) in the experiment with SF-268; 13.8 µM (inactive) in the experiment with MOLT-4.
With `CO/C=C(/C(=O)OC)c1ccccc1Oc1c(F)c(F)c(F)c(F)c1F`, the GI50 in the experiment on OVCAR-8 was 80.5 µM (inactive); with KM12, 24 µM (inactive); in the experiment on K562 it was 38.7 µM (inactive); with DU-145, 33 µM (inactive); with MDA-MB-231, 29.5 µM (inactive); in the experiment with OVCAR-5 it was > 100 µM (inactive). The GI50 is 25.8 µM (inactive) with Hs-578T; 19.6 µM (inactive) in the experiment with HOP-92; < 0.01 µM (active) in the experiment with HL-60; 42.9 µM (inactive) in the experiment on SN12C; 57.4 µM (inactive) in the experiment on SNB-19; 21.3 µM (inactive) in the experiment with OVCAR-3. For the same compound, the GI50 with SK-MEL-2 was 24.2 µM (inactive); in the experiment with NCI-H460, 31.6 µM (inactive); in the experiment with SK-OV-3, 47.9 µM (inactive); in the experiment on A498, 36.7 µM (inactive); with SF-268, 50.1 µM (inactive); in the experiment with MOLT-4, 7.69 µM (inactive).
For the compound `CC1=C(C(=O)NCCc2ccccc2)CC(C(=O)NCCc2ccccc2)=C(C)N1`, the GI50 is > 100 µM (inactive) in the experiment with OVCAR-8; 38.3 µM (inactive) with KM12; 44.3 µM (inactive) with K562; > 100 µM (inactive) with DU-145; > 100 µM (inactive) with MDA-MB-231; > 100 µM (inactive) in the experiment with OVCAR-5. The GI50 was 29.9 µM (inactive) in the experiment with Hs-578T; 49.3 µM (inactive) in the experiment on HOP-92; 31.7 µM (inactive) in the experiment on HL-60; > 100 µM (inactive) in the experiment with SN12C; 6.1 µM (inactive) with SNB-19; 88.3 µM (inactive) with OVCAR-3. Moreover, the GI50 in the experiment with SK-MEL-2 was > 100 µM (inactive); in the experiment with NCI-H460, 82.4 µM (inactive); with SK-OV-3, > 100 µM (inactive); in the experiment with A498 it was 33.2 µM (inactive); in the experiment on SF-268, 61 µM (inactive); in the experiment on MOLT-4, 74 µM (inactive).
Take `O=C(O)Cc1cccc2c1OC(c1ccccc1)C(Cl)(C(=O)c1ccccc1)C2=O` (stereo unspecified): the GI50 is 22.2 µM (inactive) in the experiment on OVCAR-8; 18.5 µM (inactive) in the experiment on KM12; 5.52 µM (inactive) in the experiment on K562; 24.4 µM (inactive) in the experiment with DU-145; 18.7 µM (inactive) in the experiment on MDA-MB-231; 35 µM (inactive) with Hs-578T. Besides, the GI50 is 20.4 µM (inactive) in the experiment with SR; 11.9 µM (inactive) with HL-60; 10.5 µM (inactive) in the experiment with SN12C; 40.1 µM (inactive) in the experiment with SNB-19; 17.7 µM (inactive) with OVCAR-3; 19.9 µM (inactive) with NCI-H460. In addition, the GI50 was > 100 µM (inactive) in the experiment on SK-OV-3, 27.9 µM (inactive) with SF-268 and 22.4 µM (inactive) in the experiment with MOLT-4.
Regarding `C=C1C(=O)O[C@H]2C[C@@]3(COC(C)=O)C=COC=C(COC(=O)C(C)C)C3CC12` (stereo partly specified), the GI50 in the experiment on OVCAR-8 is 53.3 µM (inactive); in the experiment on KM12, > 100 µM (inactive); in the experiment with K562 it was 31.6 µM (inactive); with DU-145, > 100 µM (inactive); in the experiment with MDA-MB-231, 61.9 µM (inactive); in the experiment on OVCAR-5, > 100 µM (inactive). Besides, the GI50 in the experiment on Hs-578T was > 100 µM (inactive); in the experiment on SR it was 25.9 µM (inactive); with HL-60, 23.8 µM (inactive); in the experiment on SN12C, 37.7 µM (inactive); with SNB-19 it was > 100 µM (inactive); in the experiment with OVCAR-3, > 100 µM (inactive). In addition, the GI50 in the experiment with NCI-H460 was > 100 µM (inactive); in the experiment with SF-268 it was > 10 µM (inactive); in the experiment with MOLT-4 it was 28.4 µM (inactive).
Take `CC1(C)[C@@H](Cn2cnc3c(O)nc(N)nc32)CC[C@@]1(C)CO`: the GI50 in the experiment with KM12, with K562, with DU-145, in the experiment on MDA-MB-231, in the experiment on OVCAR-5 and with Hs-578T was > 100 µM (inactive) throughout. In addition, the GI50 in the experiment with HOP-92, in the experiment with SN12C, in the experiment on SNB-19, with OVCAR-3, in the experiment with SK-MEL-2 and in the experiment with SK-OV-3 was > 100 µM (inactive) each time. In addition, the GI50 in the experiment with A498 is > 100 µM (inactive); with SF-268, > 100 µM (inactive); with MOLT-4, 1.34 µM (inactive).
On to `Cn1ccc(C(=O)NCCOCCNC(=O)c2ccn(C)c(=O)c2O)c(O)c1=O`, for which the GI50 in the experiment with OVCAR-8 was > 100 µM (inactive); in the experiment on KM12, 18.2 µM (inactive); in the experiment on DU-145, > 100 µM (inactive); in the experiment on MDA-MB-231 it was > 100 µM (inactive); in the experiment on Hs-578T, > 100 µM (inactive); with HOP-92 it was > 100 µM (inactive). The GI50 with SN12C, with SNB-19, with SK-MEL-2, in the experiment with NCI-H460, in the experiment with A498 and in the experiment on SF-268 was > 100 µM (inactive) each time.
